Data: ChEMBL document CHEMBL2390956, “Design, synthesis and evaluation of flavonoid derivatives as potential multifunctional acetylcholinesterase inhibitors against Alzheimer's disease” (Bioorg Med Chem Lett, 2013)
Calls of active or inactive are those of the source. The calls are words filed in the database; no cut-off is given here.

Assays:
[1] = biological target: Amyloid-beta precursor protein (Homo sapiens) (UniProt P05067); experiment: Inhibition of amyloid beta (1 to 42) (unknown origin) aggregation at 20 uM by thioflavin T based fluorometric assay
Sequence of Amyloid-beta precursor protein (Homo sapiens) (P05067 whole entry): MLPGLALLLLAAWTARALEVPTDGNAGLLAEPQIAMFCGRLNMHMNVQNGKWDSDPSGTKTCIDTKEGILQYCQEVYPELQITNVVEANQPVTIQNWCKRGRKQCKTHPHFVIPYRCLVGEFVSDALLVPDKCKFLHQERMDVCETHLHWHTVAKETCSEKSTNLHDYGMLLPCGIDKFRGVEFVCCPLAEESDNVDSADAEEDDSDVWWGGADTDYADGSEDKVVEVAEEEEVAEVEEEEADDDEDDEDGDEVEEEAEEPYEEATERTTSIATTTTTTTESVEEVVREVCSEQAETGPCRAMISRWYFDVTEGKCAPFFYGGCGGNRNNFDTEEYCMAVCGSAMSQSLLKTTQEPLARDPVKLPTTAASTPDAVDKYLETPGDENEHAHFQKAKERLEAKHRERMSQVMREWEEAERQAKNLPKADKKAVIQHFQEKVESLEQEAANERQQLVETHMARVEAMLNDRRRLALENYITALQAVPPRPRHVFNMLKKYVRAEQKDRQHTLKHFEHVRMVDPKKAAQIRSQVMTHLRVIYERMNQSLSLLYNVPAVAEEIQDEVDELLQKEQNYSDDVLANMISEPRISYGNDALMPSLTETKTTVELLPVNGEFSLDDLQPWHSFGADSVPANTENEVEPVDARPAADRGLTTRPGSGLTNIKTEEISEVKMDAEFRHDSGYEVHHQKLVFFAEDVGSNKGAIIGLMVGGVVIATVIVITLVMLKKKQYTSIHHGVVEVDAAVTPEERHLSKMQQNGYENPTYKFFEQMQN

[2] = biological target: Cholinesterase (Equus caballus, UniProt P81908)
Sequence of Cholinesterase (P81908 whole entry): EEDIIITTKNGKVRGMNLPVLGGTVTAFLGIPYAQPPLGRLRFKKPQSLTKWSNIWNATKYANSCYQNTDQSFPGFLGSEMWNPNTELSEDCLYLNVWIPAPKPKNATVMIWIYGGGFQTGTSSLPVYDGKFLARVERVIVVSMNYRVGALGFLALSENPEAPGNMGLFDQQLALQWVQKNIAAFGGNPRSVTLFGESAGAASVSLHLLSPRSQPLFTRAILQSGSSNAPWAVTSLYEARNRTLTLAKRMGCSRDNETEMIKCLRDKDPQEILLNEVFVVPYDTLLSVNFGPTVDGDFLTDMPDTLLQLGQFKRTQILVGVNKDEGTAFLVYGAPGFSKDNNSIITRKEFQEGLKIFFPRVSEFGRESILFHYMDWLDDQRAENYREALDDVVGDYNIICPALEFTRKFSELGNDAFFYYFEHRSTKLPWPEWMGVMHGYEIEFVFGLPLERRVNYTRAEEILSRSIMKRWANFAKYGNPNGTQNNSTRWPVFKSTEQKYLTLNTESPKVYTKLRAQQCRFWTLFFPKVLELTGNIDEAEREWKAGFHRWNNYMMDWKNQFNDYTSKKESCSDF
Description: Inhibition of equine serum BuChE using S-butyrylthiocholine iodide as substrate incubated for 6 mins prior to substrate addition measured after 60 to 180 secs by Ellman's method

[3] = biological target: Acetylcholinesterase (Electrophorus electricus, UniProt O42275)
Sequence of Acetylcholinesterase (O42275 whole entry): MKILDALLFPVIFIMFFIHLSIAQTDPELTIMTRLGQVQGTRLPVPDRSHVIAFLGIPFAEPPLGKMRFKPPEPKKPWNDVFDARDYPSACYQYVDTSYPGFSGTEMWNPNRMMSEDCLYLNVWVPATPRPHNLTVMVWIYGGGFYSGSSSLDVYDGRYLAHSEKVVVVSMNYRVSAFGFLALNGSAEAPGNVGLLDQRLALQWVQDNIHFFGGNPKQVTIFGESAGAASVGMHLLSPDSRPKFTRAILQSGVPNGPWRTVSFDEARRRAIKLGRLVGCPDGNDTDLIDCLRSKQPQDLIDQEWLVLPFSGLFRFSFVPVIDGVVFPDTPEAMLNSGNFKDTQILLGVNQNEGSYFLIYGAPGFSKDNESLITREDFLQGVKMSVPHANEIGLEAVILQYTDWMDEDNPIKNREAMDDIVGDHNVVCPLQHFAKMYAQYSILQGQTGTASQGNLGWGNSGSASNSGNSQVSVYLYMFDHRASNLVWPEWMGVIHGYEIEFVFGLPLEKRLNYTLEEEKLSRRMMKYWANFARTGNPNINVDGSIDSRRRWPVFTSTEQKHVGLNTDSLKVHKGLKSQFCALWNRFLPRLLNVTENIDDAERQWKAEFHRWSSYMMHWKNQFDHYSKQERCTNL
Description: Inhibition of electric eel AChE using acetylthiocholine iodide as substrate incubated for 6 mins prior to substrate addition measured after 60 to 180 secs by Ellman's method

[4] = biological target: Acetylcholinesterase (Electrophorus electricus) (UniProt O42275); experiment: Ratio of tacrine IC50 to compound IC50 for electric eel AChE
Sequence of Acetylcholinesterase (Electrophorus electricus) (O42275 24-633 limits assumed): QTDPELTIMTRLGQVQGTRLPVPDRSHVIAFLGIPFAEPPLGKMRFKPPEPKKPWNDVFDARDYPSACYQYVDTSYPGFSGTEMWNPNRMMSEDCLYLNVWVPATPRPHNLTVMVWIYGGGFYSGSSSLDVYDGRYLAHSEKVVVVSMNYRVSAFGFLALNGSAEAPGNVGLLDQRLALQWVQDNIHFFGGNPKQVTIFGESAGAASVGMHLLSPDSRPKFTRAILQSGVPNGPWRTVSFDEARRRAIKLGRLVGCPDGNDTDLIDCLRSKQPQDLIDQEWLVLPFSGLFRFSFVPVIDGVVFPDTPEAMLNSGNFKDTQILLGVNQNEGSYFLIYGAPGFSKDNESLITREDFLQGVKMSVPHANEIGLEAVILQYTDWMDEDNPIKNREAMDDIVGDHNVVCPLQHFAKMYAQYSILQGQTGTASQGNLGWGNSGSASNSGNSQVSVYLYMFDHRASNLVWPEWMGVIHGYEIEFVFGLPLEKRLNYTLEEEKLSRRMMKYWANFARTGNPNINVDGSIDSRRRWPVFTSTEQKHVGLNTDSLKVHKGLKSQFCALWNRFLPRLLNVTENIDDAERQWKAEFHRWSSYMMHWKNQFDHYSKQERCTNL

[5] = Metal chelating activity of the compound assessed as formation of iron complex at 35 uM by UV-vis spectrometry; assay type: functional
[6] = biological target: Acetylcholinesterase (Electrophorus electricus) (UniProt O42275); experiment: Ratio of galanthamine IC50 to compound IC50 for electric eel AChE
[7] = biological target: Acetylcholinesterase (Homo sapiens) (UniProt P22303); experiment: Mixed inhibition of AChE (unknown origin) using ATC as substrate assessed as acetylcholine hydrolysis incubated 15 mins prior to substrate addition by Lineweaver-Burk plot analysis
Sequence of Acetylcholinesterase (Homo sapiens) (P22303 whole entry): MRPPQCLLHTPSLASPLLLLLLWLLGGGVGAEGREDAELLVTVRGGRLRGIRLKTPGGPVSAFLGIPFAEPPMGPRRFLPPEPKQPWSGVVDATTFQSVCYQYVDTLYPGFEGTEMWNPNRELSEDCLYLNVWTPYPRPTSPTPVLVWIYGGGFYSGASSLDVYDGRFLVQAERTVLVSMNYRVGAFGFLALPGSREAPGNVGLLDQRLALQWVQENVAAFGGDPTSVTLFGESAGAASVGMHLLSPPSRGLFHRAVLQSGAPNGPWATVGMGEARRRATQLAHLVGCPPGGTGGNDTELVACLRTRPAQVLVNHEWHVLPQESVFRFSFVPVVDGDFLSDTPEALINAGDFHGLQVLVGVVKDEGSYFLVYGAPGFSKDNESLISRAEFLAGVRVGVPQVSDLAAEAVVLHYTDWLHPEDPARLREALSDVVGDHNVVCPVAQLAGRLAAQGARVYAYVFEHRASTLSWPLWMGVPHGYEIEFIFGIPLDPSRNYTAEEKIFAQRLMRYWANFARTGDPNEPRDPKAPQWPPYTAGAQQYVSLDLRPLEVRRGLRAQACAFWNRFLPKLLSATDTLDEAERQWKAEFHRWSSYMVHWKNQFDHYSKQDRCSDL

[8] = Metal chelating activity of the compound assessed as formation of copper complex at 35 uM by UV-vis spectrometry; assay type: functional

Row | SMILES | inhibition [1] [%] | IC50 [2] [nM] | IC50 [3] [nM] | Ratio IC50 [4] | Activity [5] | Ratio IC50 [6] | inhibition [7] | Activity [8]
1 | Cc1c(OCCCCCN2CCC(O)CC2)ccc2c(=O)cc(-c3ccccc3)oc12 | 37.4 | 4850 | 604 | – | – | – | – | –
2 | Cc1c(OCCCN2CCC(O)CC2)ccc2c(=O)cc(-c3ccccc3)oc12 | 21.4 | 4120 | 2940 | – | – | – | – | –
3 | Cc1c(OCCCCN(C)C)ccc2c(=O)cc(-c3ccccc3)oc12 | 34.3 | > 100000 | 328 | – | – | – | – | –
4 | Cc1c(OCCCCCN2CCCCC2C)ccc2c(=O)cc(-c3ccccc3)oc12 (stereo unspecified) | 36.7 | 2770 | 216 | – | – | – | – | –
5 | Cc1c(OCCCCCCN2CCC(O)CC2)ccc2c(=O)cc(-c3ccccc3)oc12 | 39 | 3930 | 3150 | – | – | – | – | –
6 | Cc1c(OCCN2CCCCC2C)ccc2c(=O)cc(-c3ccccc3)oc12 (stereo unspecified) | 30.5 | > 100000 | 2100 | – | – | – | – | –
7 | Cc1c(OCCCCN2CCOCC2)ccc2c(=O)cc(-c3ccccc3)oc12 | 20.4 | > 100000 | 2880 | – | – | – | – | –
8 | Cc1c(OCCCCCN2CCCCC2)ccc2c(=O)cc(-c3ccccc3)oc12 | 41.7 | 1410 | 329 | – | – | – | – | –
9 | CCN(CC)CCCCOc1ccc2c(=O)cc(-c3ccccc3)oc2c1C | 39 | 4820 | 130 | 2 | Active | 20 | Active | Active
10 | Cc1c(OCCCCCCN2CCCC2)ccc2c(=O)cc(-c3ccccc3)oc12 | 38.1 | 3280 | 764 | – | – | – | – | –
11 | Cc1c(OCCCCCN2CCCC2)ccc2c(=O)cc(-c3ccccc3)oc12 | 39.3 | 1910 | 243 | – | – | – | – | –
12 | Cc1c(OCCCCN2CCN(C)CC2)ccc2c(=O)cc(-c3ccccc3)oc12 | 31.1 | 5750 | 1660 | – | – | – | – | –
13 | COC(=O)[C@@H]1CCCN1CCCCCOc1ccc2c(=O)cc(-c3ccccc3)oc2c1C | – | 3930 | 19600 | – | – | – | – | –
14 | Cc1c(OCCN2CCCC2)ccc2c(=O)cc(-c3ccccc3)oc12 | 42 | 2710 | 2040 | – | – | – | – | –
15 | CCN(CC)CCCCCOc1ccc2c(=O)cc(-c3ccccc3)oc2c1C | 40.9 | > 100000 | 264 | – | – | – | – | –
16 | Cc1c(OCCCN2CCCC2)ccc2c(=O)cc(-c3ccccc3)oc12 | 27.1 | 2780 | 952 | – | – | – | – | –
17 | Cc1c(OCCCCCN2CCOCC2)ccc2c(=O)cc(-c3ccccc3)oc12 | 24.6 | > 100000 | 8630 | – | – | – | – | –
18 | Cc1c(OCCCCN2CCC(O)CC2)ccc2c(=O)cc(-c3ccccc3)oc12 | 22.1 | > 100000 | 607 | – | – | – | – | –
19 | Cc1c(OCCCCN2CCCC2)ccc2c(=O)cc(-c3ccccc3)oc12 | 21.8 | 5700 | 238 | – | – | – | – | –
20 | Cc1c(OCCCCCN(C)C)ccc2c(=O)cc(-c3ccccc3)oc12 | 37.9 | 2540 | 210 | – | – | – | – | –
21 | Cc1c(OCCCCCCN2CCCCC2C)ccc2c(=O)cc(-c3ccccc3)oc12 (stereo unspecified) | 43.2 | 3740 | 1890 | – | – | – | – | –
22 | Cc1c(OCCCN2CCCCC2C)ccc2c(=O)cc(-c3ccccc3)oc12 (stereo unspecified) | 41.7 | 5840 | 590 | – | – | – | – | –
23 | COC(=O)[C@@H]1CCCN1CCCCOc1ccc2c(=O)cc(-c3ccccc3)oc2c1C | – | 3820 | 25300 | – | – | – | – | –
24 | Cc1c(OCCCCN2CCCCC2)ccc2c(=O)cc(-c3ccccc3)oc12 | 37.5 | > 100000 | 234 | – | – | – | – | –
25 | Cc1c(OCCCCCN2CCN(C)CC2)ccc2c(=O)cc(-c3ccccc3)oc12 | 39.9 | 4870 | 1870 | – | – | – | – | –
26 | Cc1c(OCCN2CCC(O)CC2)ccc2c(=O)cc(-c3ccccc3)oc12 | 26.9 | 3210 | 1830 | – | – | – | – | –
27 | Cc1c(O)ccc2c(=O)cc(-c3ccccc3)oc12 | – | > 100000 | 87100 | – | – | – | – | –
28 | Cc1c(OCCCCN2CCCCC2C)ccc2c(=O)cc(-c3ccccc3)oc12 (stereo unspecified) | 37.3 | > 100000 | 225 | – | – | – | – | –
